Assay results published in patent US20240384268A1, “Oligonucleotides” (Hudson Institute of Medical Research, priority 2021, published 2024).
d = 2'-deoxy (DNA); m = 2'-O-methyl

Target: cGAS (Homo sapiens, UniProt Q8N884)
Experiment: ISD70-driven IP-10 production in HT-29 cells, ELISA
Format: cell-based
Parameters: endogenous in cells
Details: 187.5 nM ASO overnight, ISD70 24 h

cGAS, sequence (Q8N884 whole entry): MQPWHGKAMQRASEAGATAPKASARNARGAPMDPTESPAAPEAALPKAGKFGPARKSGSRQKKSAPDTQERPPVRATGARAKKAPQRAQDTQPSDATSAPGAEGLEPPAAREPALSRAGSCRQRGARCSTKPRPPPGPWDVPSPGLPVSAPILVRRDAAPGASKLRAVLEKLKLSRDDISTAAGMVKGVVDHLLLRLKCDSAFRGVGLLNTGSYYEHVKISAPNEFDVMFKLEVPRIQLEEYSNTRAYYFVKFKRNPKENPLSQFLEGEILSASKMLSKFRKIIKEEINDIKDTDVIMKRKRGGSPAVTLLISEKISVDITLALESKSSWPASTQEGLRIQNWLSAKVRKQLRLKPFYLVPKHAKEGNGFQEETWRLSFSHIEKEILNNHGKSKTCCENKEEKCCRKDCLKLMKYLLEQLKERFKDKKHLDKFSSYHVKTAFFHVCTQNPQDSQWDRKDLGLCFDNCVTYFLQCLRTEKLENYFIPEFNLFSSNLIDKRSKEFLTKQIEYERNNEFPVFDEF

For “mG*mA*mU*mG*mG*T*T*C*C*A*G*T*C*C*C*mU*mC*mU*mU*mC (GAUGGTTCCAGTCCCUCUUC; antisense; sugars from the 5' end m5 d10 m5, all phosphorothioate, methylation of C not given here) [[LINC-PINT]1497.1]”, which “reduction of ISD70-dependent IP-10 production” value is on record?
Its value is 25%.
